The values below come from US20240060990A1, “SPATIAL SIGNALING NETWORKS FOR MULTIPLEXED DRUG RESPONSE MEASUREMENT AND MODELING” (Georgia Tech Research Corporation, priority 2022, published 2024).

Test [1] relates to PC9 cells. The test can be described thus: Pearson correlation of single-cell mean marker intensity (RapMIF). Format: cell-based, human. How it is done: Correlation analysis: Correlation between pairs of cells was performed based on the mean intensity level for a pair of markers across all the cells (FIGS. 5A-5F). The correlation between pairwise markers at the cell level was investigated to identify co-expression patterns. For the correlation analysis, the Pearson correlation of pairwise markers at the single-cell level was quantified by using the mean intensity distribution for pairs of markers across the cells (FIGS. 5E-5F, FIGS. 7C-7D). The per cell mean intensity was first extracted for all markers to obtain a vector of mean intensities per cell. The nuclei and cytosol region were then separated for each cell and extracted one vector of mean intensities in the cytosol and another vector of mean intensities in the nuclei per cell. To confirm the bleaching efficiency, the mean intensity correlations of the before and after bleach images was compared. The 3-way correlation was calculated with the adjusted-R^2 value of the linear regression model of one marker predicted by the two others. Specifically, the expression of the maker on the z-axis was predicted by the two markers on the x and y-axis using a 3D scatter plot.

The subject of another test is Mcl-1. The conditions noted are these: cited from earlier work.
The next test concerns HCC827 cells. Kind of test: PPI network motif frequency in HCC827 cells. Format: cell-based, human. The source says:
Spatial Graph Construction: For each detected PPI in a cell, the corresponding 2D or 3D localization was extracted, and a node was assigned in the created graph. The node labels are assigned by creating a one-hot encoding of the corresponding PPI detected for the node. Delaunay triangulation was used to create edges connecting the nodes in the graph and therefore create a PPI spatial graph for each cell. The models are trained in a multi-instance learning framework, that is a cell label for each instance was assigned based on the cell treatment condition of a group.

The subject of the next test is WNT1. The test can be described thus: RapMIF multiplexed immunofluorescence in PC9 cells, WNT1. The conditions noted are these: 40 nM, 48 hours vs control. The test is classed as cell-based, human. The source says: (§1) RapMIF: The RapMIF setup consisted of an autosampler that transferred antibodies and performed washes of the sample automatically and controlled by a custom-written python code (FIGS. 10A-10D). The buffers used during the procedure are 1×PBS (D8537, Sigma), CSM, and Fluorophore bleaching solution. PBS 1× was the wash buffer for the stabilization of the cells and the tubes. CSM was the imaging buffer that helped in the annealing of antibodies with the cells. Fluorophore bleaching solution was the strip buffer used to remove staining after each cycle. The walls on the 96-well plate for the antibodies were pre-washed with 1×PBS. The well plate was covered with foil stickers to ensure a dark condition. […] Once the cells were mounted and the antibodies and buffers were ready for transfer, automatic staining was done by running Python code. […]
(§2) Cell multiplexing: Each coverslip prepared with cells was stained with 25 markers using a total of 11-12 cycles (FIG. 10C). […] To quantify the frequencies belonging to the signal that disappears after bleaching, a Fourier analysis of before and after bleaching was performed to indicate the difference in frequencies belonging to the signal.
(§3) Image intensity: From nuclei and cytosol cell masks, the mean intensity of markers in each cell area was calculated. […]

For another test, the system named is p-AKT(S473). The test can be described thus: RapMIF multiplexed immunofluorescence in PC9 cells, p-AKT. Particulars: 40 nM, 48 hours vs control. The test is classed as cell-based, human.
From the text: as §1, §2, §3

The test system of test [2] is PC9 cells. The test can be described thus: Cell survival: cell number on coverslip counted in ImageJ. Format: cell-based, human. How it is done: The cell survival was measured based on the cell number on the coverslip. […] The cells were stained with p-EGFR, and β-tubulin and three ROIs were imaged for each concentration at 40×. The cell number on each ROI was counted in ImageJ following the steps: import the Channel image, make binary, convert it to masks, analyze particles, and then choose “masks” under the “show” option.

For the next test, the system named is p-ERK. The conditions noted are these: up to 24 hours; cited from earlier work.

“Also recorded” adds a separate entry of the source.

Consider `C=CC(=O)Nc1cc(Nc2nccc(-c3cn(C)c4ccccc34)n2)c(OC)cc1N(C)CCN(C)C` [Osimertinib], for which the “correlation of WNT1 with p-AKT” value in the test on PC9 cells [1] (40 nM) is reported as “high correlation with p-AKT in the presence of the drug”. In addition, the “correlation between p-EGFR and non-p-β-catenin” value with PC9 cells [1] (40 nM vs control) is “higher positive correlation between p-EGFR and non-p-β-catenin compared to the control”. In the test on PC9 cells [1] (40 nM, 48 hours), the “correlation of p-EGFR with p-AKT (single-cell mean intensity)” value was “high correlation to p-AKT after drug treatment”. Also, the “correlation of WNT1 with p-EGFR” value in the test with PC9 cells [1] (control and 40 nM) is given as “low correlation with p-EGFR in both conditions”. In addition, in the test on Mcl-1, the Mcl-1 level result is on record as “downregulates Mcl-1”. In the test on HCC827 cells (5 PPI network), the “motif 9 (p-ERK/c-Myc & p-ERK/c-Myc) autoregulation” value is “Increased autoregulation” and the “three-node motif 17 (Tead1/Yap&Tead1/Yap& p-ERK/c-Myc)” value is listed as “more interactions”. For the same molecule, in the test on HCC827 cells (9 PPIs dataset), the “autoregulation of cyclin D1/CDK2 in motif 0 and motif 45” value is reported as “inhibited”; the “interaction between sox2/oct4 and Cyclin D1/CDK4 (motif 2, motif 47)” value is on record as “downregulation”. Also, the WNT1 signaling entry with WNT1 was “increased the WNT1 signaling”. Also, in the test on p-AKT(S473), the p-AKT expression entry is recorded as “consistently downregulated; also recorded: consistent downregulation”. Moreover, the “cell viability, higher vs lower drug concentrations” value in the test with PC9 cells [2] (48-hour treatment) is recorded as “further decreased the cell viability”. Moreover, in the test with PC9 cells [2] (48-hour treatment, 0, 20, 40, 60 nM), the “number of cells adhering to the coverslips” value is “decreased as the drug concentration has increased; also recorded: reduced the number of adherent PC9 cells compared to untreated ones”. In addition, in the test on p-ERK, the “p-ERK, total protein level by western blot” value is given as “inhibitory role of Osimertinib on p-ERK for up to 24 hours”.
